Reference: publication PMC8406298, “Discovery of Fungus-Specific Targets and Inhibitors Using Chemical Phenotyping of Pathogenic Spore Germination” (mBio, 2021)

What was measured:
[1] = tested on: normal human dermal fibroblasts (NHDF) cells; assay: Fibroblast cytotoxicity (CellTiter-Glo); type: cell-based; settings: 10 µM
Procedure: PrimaPure normal human dermal fibroblasts (NHDF) cells (Genlatis PH10605A) were cultured and passaged in fibroblast growth medium (Genlatis PM116500) according to the manufacturer’s protocol. NHDF cells (1 × 10^3 per well) were plated in a 384-well plate in cell culture medium. The cells were incubated with each compound of interest at 10 μM concentration for 72 h at 37°C and 5% CO2. Following treatment, CellTiter-Glo (Promega) reagent was used to assay ATP-dependent luminescence and thus provide a measure of cell viability. […] For cytotoxicity dose-response curves (Fig. 4C and Fig. 5C), compounds were titrated from 80 μM to 0.5 μM in duplicates.

[2] = tested on: Cryptococcus yeast (CHY3833 and CHY3836); assay: Yeast replication secondary screen (OD600); type: cell-based, Cryptococcus neoformans serotype D (deneoformans); settings: 10 μM, 12 h at 30°C
Procedure: (ii) Yeast replication. CHY3833 and CHY3836 were each grown in YPD liquid overnight at 30°C to saturation and then resuspended in 0.5× YPD at an OD600 of 0.005. Strains were aliquoted into 384-well plates with inhibitors and grown for 12 h at 30°C at […] before OD600 readings were taken. Compounds that caused a >10% decrease in growth were considered yeast growth inhibitors.

Structure (SMILES)	Cytotoxicity: Relative Cell Viability (% of Negative Control) [1]	Yeast Inhibition: % Inhibition [2] [%]
O=c1[nH]sc2ccccc12 [compound 17520]	3.3 % of Negative Control	101.5
Oc1ccc2cc(Br)ccc2c1 [compound 27144]	31.7 % of Negative Control	100.0
Oc1ccc(-c2ccccc2)cc1Br [compound 27297]	4.7 % of Negative Control	101.8
Cc1n[nH]c(C)c1Br [compound 76937]	59.9 % of Negative Control	22.1
N#CSC1C=CS(=O)(=O)C1 (centres unmarked) [compound 99741]	40.8 % of Negative Control	49.2
COc1ccc(C2=CC(=O)C=CC2=O)cc1 [compound 121637]	3.0 % of Negative Control	100.9
Cc1ccc(Nc2cc(Cl)nc(N)n2)cc1Cl [compound 243059]	46.1 % of Negative Control	98.9
COc1ccc(CCN2C(=O)C=CC2=O)cc1OC [compound 282938]	24.9 % of Negative Control	101.4
N#Cc1nc2c(nc1C#N)-c1ccccc1C2=O [compound 292929]	5.9 % of Negative Control	100.6
Cc1ccc(CN2C(=O)C=CC2=O)cc1 [compound 302279]	3.1 % of Negative Control	101.5
O=S(=O)(Nc1cccc2ccccc12)c1ccc(Cl)cc1 [compound 310131]	67.0 % of Negative Control	59.8
CCOC(=O)c1ccc(NC(=O)CCc2ccc(CC)o2)cc1 [compound 652808]	113.1 % of Negative Control	28.0
CC(C)(C)c1ccc(-c2csc(N)n2)cc1 [compound 673711]	86.3 % of Negative Control	94.3
Cc1ccc2occ(C=O)c(=O)c2c1 [compound 688709]	91.6 % of Negative Control	100.0
CC(C)Cc1nnc(NC(=O)C(Cl)Cl)s1 [compound 697528]	96.1 % of Negative Control	71.6
Oc1ccccc1-c1cc2ccccc2[nH]1 [compound 700009]	96.3 % of Negative Control	82.2
Cc1ccc(C)c(S(=O)(=O)n2cnc3ccccc32)c1 [compound 700148]	84.1 % of Negative Control	59.4
O=C(NC(=S)NCc1ccccc1)c1ccccc1 [compound 700976]	97.5 % of Negative Control	78.1

Structure (SMILES)	Cytotoxicity: Relative Cell Viability (% of Negative Control) [1]	Yeast Inhibition: % Inhibition [2] [%]
O=C(Nc1nc2c(s1)CCc1ccccc1-2)c1ccco1 [compound 701070]	92.9 % of Negative Control	1.7
NC(=O)/C=C/C(=O)Nc1cccc(C(F)(F)F)c1 [compound 707936]	3.5 % of Negative Control	101.2
Cc1ccc(C)c(N2C(=O)C=CC2=O)c1 [compound 709153]	3.3 % of Negative Control	101.9
CC1CCN(C(=O)COc2ccc(-c3ccccc3)cc2)CC1 [compound 717711]	90.0 % of Negative Control	28.9
CN(C)c1ccc(NC(=O)/C=C/c2ccccc2Cl)cc1 [compound 723732]	79.8 % of Negative Control	27.8
CC(C)=CC(=O)Nc1ccc(OCc2ccccc2)cc1 [compound 731806]	91.1 % of Negative Control	64.0
Cc1nc(NC(=O)CCc2ccccc2)sc1C [compound 733834]	96.8 % of Negative Control	89.7
Cc1ccccc1OCCn1cnc2ccccc21 [compound 749608]	96.0 % of Negative Control	75.5
COc1ccc(Cc2nc3ccccc3[nH]2)cc1 [compound 763894]	98.0 % of Negative Control	23.2
COc1ccccc1NS(=O)(=O)c1cc(Cl)ccc1Cl [compound 766532]	56.4 % of Negative Control	96.0
Oc1ccc(C2(c3cccc(Cl)c3)CCCC2)cc1 [compound 767639]	96.2 % of Negative Control	74.0
O=C(/C=C/c1ccco1)N1CCCc2ccccc21 [compound 768672]	109.0 % of Negative Control	37.4
CCc1ccc2nc(N)sc2c1 [compound 773093]	62.5 % of Negative Control	73.1
Nc1nc(-c2ccc(Oc3ccccc3)cc2)cs1 [compound 780598]	97.5 % of Negative Control	81.0
Cc1ccc(OCCn2c(C)nc3ccccc32)cc1 [compound 790960]	90.6 % of Negative Control	81.4
C[n+]1sc(Nc2ccccc2)nc1-c1ccccc1 [compound 803194]	16.5 % of Negative Control	98.4
O=Cc1sc(=O)n(Cc2ccccc2)c1Cl [compound 820752]	115.4 % of Negative Control	101.8
Nc1nc(-c2ccccn2)cs1 [compound 1092459]		100.0
